The test system of series [1] is Mtb H37Rv. Kind of series: TB MIC – SRI, resazurin-based microplate assay. Format: cell-based, Mycobacterium tuberculosis. Conditions: lowest concentration inhibiting ≥90% growth. Background: Alamar Blue is a resazurin reagent that responds to reducing activity.
Series [2] in a line: Plasma pharmacokinetics after oral administration to female mice. The class given is in vivo, mouse.
Series [3] has as its system M. smegmatis. The series can be described thus: Antimicrobial spectrum of activity. Format: cell-based. Conditions: relative to activity against Mtb; SI Table 1.
The subject of series [4] is M. abscessus. The series can be described thus: Antimicrobial spectrum of activity. Format: cell-based. Conditions: SI Table 1.
Series [5] has as its system Salmonella typhimurium strain TA100. The series can be described thus: Ames assay, plate incorporation method. Format: cell-based. In general terms: The Ames test uses bacterial strains that need an amino acid and regain growth without it when mutated back.
Series [6] concerns Salmonella typhimurium strain TA98. Kind of series: Ames assay, plate incorporation method. The class given is cell-based.
Series [7] deals with L5178Y mouse lymphoma cells. The series can be described thus: Mouse lymphoma cell tk+/−→tk−/− gene mutation. Format: cell-based. Conditions: for Mutation frequency response in MOLY assay: in the presence or absence of metabolic activation (S9), non-cytotoxic dose levels.
The subject of series [8] is L5178Y mouse lymphoma cells. Conditions: no reference printed at b52; cited from earlier work.
Series [9] relates to NRP Mtb H37Rv cells. The series can be described thus: Low-oxygen recovery assay. Format: cell-based, Mycobacterium tuberculosis. Particulars: non-replicating Mtb, anaerobic 10 d + 28-h recovery; ~90% inhibition.
For series [10], the system named is Vero cells (Vero ATCC CCL-81). The series can be described thus: Cytotoxicity against Vero cells. Conditions: 72 h incubation.
In series [11] the test system is Mtb H37Rv. Kind of series: TB MIC – ITR. Format: cell-based, Mycobacterium tuberculosis. Conditions: ITR laboratory.
The mark [12] stands for this setting: in the presence and absence of metabolic activation (10% rat-liver S9).

Like-named read-outs stand apart in the source and are kept apart here.

Turning to “7-chloro-3-((1-methoxybutan-2-yl)amino)benzo[e][1,2,4]triazine 1,4-dioxide [Compound 15bi]”, the “TB MIC – SRI” value in [1] came to 1.2 µg/mL.

In the case of `CCNc1n[n+]([O-])c2ccccc2[n+]1[O-]` [Compound 8a, 3-(ethylamino)benzo[e][1,2,4]triazine 1,4-dioxide], the “Plasma drug concentration at the 24 hr time point” value in [2] (mouse, in vivo, po, 100 mg/kg) was “lower than the limit of quantitation”. Moreover, the “Antimicrobial activity against M. smegmatis” value in series [3] is recorded as “weaker activity”. Also, the “Antimicrobial activity against M. abscessus” value in [4] is “resistant”.

Take `[O-][n+]1nc(N2CCCC2)[n+]([O-])c2cc3c(cc21)CCC3` [Compound 20q, 3-(pyrrolidin-1-yl)-7,8-dihydro-6H-indeno[5,6-e][1,2,4]triazine 1,4-dioxide]: the “Number of revertant colonies, strain TA100” value in series [5] (setting [12]) was “dose-related increases in the number of revertant colonies”. Also, the “Plasma drug concentration at the 24 hr time point” value in series [2] (female mice, 100 mg/kg po, n = 3 per time point) is “lower than the limit of quantitation”. In series [6] (setting [12]), the “Number of revertant colonies, strain TA98” value was “dose-related increases in the number of revertant colonies”. In addition, in series [3], the “Antimicrobial activity against M. smegmatis” value is reported as “weaker activity”. Also, in series [7] (at concentrations up to 100 μg/mL), the “Mutagenic activity in MOLY assay” value is “no mutagenic activity”. In series [7] (dose 10 μg/mL), the “Mutagenic potential, +S9, 4-Hr Exposure” value is reported as “Negative”; the “Mutagenic potential, −S9, 4-Hr Exposure” value is recorded as “Negative”; the “Mutagenic potential, −S9, 24-Hr Exposure” value is “Negative”. For the same molecule, in series [7] (dose 25 μg/mL), the “Mutagenic potential, +S9, 4-Hr Exposure” value is on record as “Negative ^a”; the “Mutagenic potential, +S9, 24-Hr Exposure” value is “Negative”; the “Mutagenic potential, −S9, 4-Hr Exposure” value was “Negative”; the “Mutagenic potential, −S9, 24-Hr Exposure” value is reported as “Negative”. In [7] (dose 50 μg/mL), the “Mutagenic potential, +S9, 4-Hr Exposure” value is recorded as “Negative”; the “Mutagenic potential, +S9, 24-Hr Exposure” value is reported as “Negative”; the “Mutagenic potential, −S9, 4-Hr Exposure” value is “Negative”; the “Mutagenic potential, −S9, 24-Hr Exposure” value is recorded as “Negative”. Further, in series [7] (dose 100 μg/mL), the “Mutagenic potential, +S9, 4-Hr Exposure” value is recorded as “Negative”; the “Mutagenic potential, +S9, 24-Hr Exposure” value is recorded as “Negative”; the “Mutagenic potential, −S9, 4-Hr Exposure” value is “Negative”; the “Mutagenic potential, −S9, 24-Hr Exposure” value is reported as “Negative”. In series [7], the “Mutation frequency response in MOLY assay” value was “negative response”. Besides, the “Antimicrobial activity against M. abscessus” value in series [4] is reported as “resistant”.

For the molecule `Nc1n[n+]([O-])c2ccccc2[n+]1[O-]` [TPZ, tirapazamine], in series [8], the “Mutagenicity in MOLY assay” value is on record as “mutagenic”.

Regarding `CCNc1n[n+]([O-])c2cc3c(cc2[n+]1[O-])CCC3` [Compound 15fa, 3-(ethylamino)-7,8-dihydro-6H-indeno[5,6-e][1,2,4]triazine 1,4-dioxide], in series [5], the “Number of revertant colonies, strain TA100” value is listed as “dose-related increases in the number of revertant colonies”. The “Number of revertant colonies, strain TA98” value in [6] is given as “dose-related increases in the number of revertant colonies”. Further, the “Mutagenic potential, +S9, 4-Hr Exposure” value in [7] (dose 10 μg/mL), in series [7] (dose 25 μg/mL), in series [7] (dose 50 μg/mL) and in [7] (dose 100 μg/mL) was “Positive” in each case. The “Mutagenic potential, +S9, 24-Hr Exposure” value in series [7] (dose 10 μg/mL), in [7] (dose 25 μg/mL), in series [7] (dose 50 μg/mL) and in [7] (dose 100 μg/mL) was “Positive” each time. For the same molecule, the “Mutagenic potential, −S9, 4-Hr Exposure” value in series [7] (dose 10 μg/mL), in series [7] (dose 25 μg/mL), in [7] (dose 50 μg/mL) and in [7] (dose 100 μg/mL) was “Positive” throughout. The “Mutation frequency response in MOLY assay” value in [7] is “significant increase in mutation frequency”.

As for “3-((1-methoxybutan-2-yl)amino)benzo[e][1,2,4]triazine 1,4-dioxide [Compound 8i]”, the “LORA MIC – ITR” value in series [9] is 4.9 µg/mL. The “Vero Tox CC50” value in series [10] was over 50 µg/mL. Also, the “TB MIC – ITR” value in [11] came out at 6.6 µg/mL. In addition, the “TB MIC – SRI” value in series [1] was 10.0 µg/mL.

For the molecule “7-fluoro-3-((1-methoxybutan-2-yl)amino)benzo[e][1,2,4]triazine 1,4-dioxide [Compound 15ai]”, the “LORA MIC – ITR” value in series [9] was 1.9 µg/mL. Besides, the “Vero Tox CC50” value in [10] turned out to be 6.3 µg/mL. Besides, the “TB MIC – ITR” value in [11] is 2.0 µg/mL. Also, in series [1], the “TB MIC – SRI” value came out at 5.0 µg/mL.

The values above are taken from PMC3395780 (Journal of Medicinal Chemistry, 2012).
